Drawing on PubChem BioAssay AID248 (DTP/NCI, 2004), this text covers T/C for 21 molecules.

Several values for one entry are separate records, joined by “and”; a condition that tells them apart may be missing. Identical values can stand only once. Toxic doses and inconclusive results are not listed.

For this experiment, the system named is L1210 leukemia ip in BDF1 mice, survival T/C. Description: NCI In Vivo Anticancer Drug Screen. Data for tumor model L1210 Leukemia (intraperitoneal) in B6D2F1 (BDF1) mice. The settings on record: endpoint: mean survival time, higher = longer survival. The gist of the method:
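Mice bearing the transplanted tumor received compound or vehicle. Survival of the treated group was divided by that of the vehicle-treated control group to give the ratio.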

Where [1] appears, read: dose: 100.0 mg/kg/injection, schedule: Q01DX009 (ip), vehicle: Klucel (hydroxypropylcellulose) (HPC).
The mark [2] stands for this setting: dose: 100.0 mg/kg/injection, schedule: Q04DX003 (ip), vehicle: Klucel (hydroxypropylcellulose) (HPC).
Where [3] appears, read: dose: 200.0 mg/kg/injection, schedule: Q01DX009 (ip), vehicle: Klucel (hydroxypropylcellulose) (HPC).
The mark [4] stands for this setting: dose: 200.0 mg/kg/injection, schedule: Q04DX003 (ip), vehicle: Klucel (hydroxypropylcellulose) (HPC).
Setting [5] is: dose: 100.0 mg/kg/injection, schedule: Q04DX002 (ip), vehicle: saline.
Setting [6] is: dose: 200.0 mg/kg/injection, schedule: Q04DX002 (ip), vehicle: saline.
Setting [7] is: dose: 20.0 mg/kg/injection, schedule: Q01DX009 (ip), vehicle: Klucel (hydroxypropylcellulose) (HPC).
[8] abbreviates: dose: 40.0 mg/kg/injection, schedule: Q01DX009 (ip), vehicle: Klucel (hydroxypropylcellulose) (HPC).
[9] abbreviates: dose: 25.0 mg/kg/injection, schedule: Q04DX003 (ip), vehicle: saline with Tween-80.
Where [10] appears, read: dose: 100.0 mg/kg/injection, schedule: Q04DX003 (ip), vehicle: saline with Tween-80.
Setting [11] is: dose: 200.0 mg/kg/injection, schedule: Q04DX003 (ip), vehicle: saline with Tween-80.
Where [12] appears, read: dose: 400.0 mg/kg/injection, schedule: Q04DX003 (ip), vehicle: saline with Tween-80.
Setting [13] is: dose: 100.0 mg/kg/injection, schedule: Q01DX001 (ip), vehicle: saline.
The mark [14] stands for this setting: dose: 200.0 mg/kg/injection, schedule: Q01DX001 (ip), vehicle: saline.
Where [15] appears, read: dose: 400.0 mg/kg/injection, schedule: Q01DX001 (ip), vehicle: saline.
The mark [16] stands for this setting: dose: 10.0 mg/kg/injection, schedule: Q01DX001 (ip), vehicle: saline.
Setting [17] is: dose: 50.0 mg/kg/injection, schedule: Q01DX001 (ip), vehicle: saline.

As to `COc1ccc(C(=O)/C=C/c2ccc3c(c2)OCO3)cc1OC`, the T/C is 87 % of control under setting [1]; 98 % of control under setting [2]; 90 % of control under setting [3]; 98 % of control under setting [4]; 90 % of control (dose: 400.0 mg/kg/injection, schedule: Q01DX009 (ip), vehicle: Klucel (hydroxypropylcellulose) (HPC)); 96 % of control (dose: 400.0 mg/kg/injection, schedule: Q04DX003 (ip), vehicle: Klucel (hydroxypropylcellulose) (HPC)).

With `Cn1nc(C(N)=O)c(C#N)c1N`, the T/C (dose: 50.0 mg/kg/injection, schedule: Q04DX002 (ip), vehicle: saline) was 103 % of control; the T/C under setting [5] was 92 % of control; the T/C under setting [6] is 95 % of control.

Regarding `Cc1ccc(S(=O)(=O)N(CC2OCC3OC(C)(C)OC23)N=O)cc1` (stereo not drawn), the T/C was 100 % of control (dose: 75.0 mg/kg/injection, schedule: Q01DX001 (ip), vehicle: saline); 98 % of control (dose: 150.0 mg/kg/injection, schedule: Q01DX001 (ip), vehicle: saline); 98 % of control (dose: 300.0 mg/kg/injection, schedule: Q01DX001 (ip), vehicle: saline).

For `CC(=O)Nc1ccc(NCc2cnc3nc(N)nc(N)c3n2)cc1`, the T/C runs as follows: under setting [7], 96 % of control; under setting [8], 104 % of control; (dose: 80.0 mg/kg/injection, schedule: Q01DX009 (ip), vehicle: Klucel (hydroxypropylcellulose) (HPC)) 96 % of control.

On to `O=c1cc(CCl)[nH]nc1CCl`, for which the T/C reads like this: (dose: 6.0 mg/kg/injection, schedule: Q04DX003 (ip), vehicle: saline with Tween-80) 110 % of control; (dose: 9.5 mg/kg/injection, schedule: Q04DX003 (ip), vehicle: saline with Tween-80) 110 % of control; (dose: 14.5 mg/kg/injection, schedule: Q04DX003 (ip), vehicle: saline with Tween-80) 117 % of control; (dose: 22.0 mg/kg/injection, schedule: Q04DX003 (ip), vehicle: saline with Tween-80) 115 % of control and 124 % of control; under setting [9], 115 % of control; (dose: 33.0 mg/kg/injection, schedule: Q04DX003 (ip), vehicle: saline with Tween-80) 124 % of control. In addition, the T/C (dose: 75.0 mg/kg/injection, schedule: Q04DX003 (ip), vehicle: saline with Tween-80) was 113 % of control and the T/C under setting [10] was 111 % of control.

On to `O=S(=O)(O)c1ccc2c(N=Nc3ccc(S(=O)(=O)N(CCCl)CCCl)cc3)c(O)c(S(=O)(=O)O)cc2c1`, for which the T/C (dose: 50.0 mg/kg/injection, schedule: Q04DX003 (ip), vehicle: Klucel (hydroxypropylcellulose) (HPC)) was 106 % of control; the T/C under setting [2] was 90 % of control; the T/C under setting [4] was 93 % of control.

With `CCCCCCCCCC[P+](=O)CCCCCCCCCC`, the T/C runs as follows: under setting [9], 92 % of control; (dose: 50.0 mg/kg/injection, schedule: Q04DX003 (ip), vehicle: saline with Tween-80) 89 % of control; under setting [11], 89 % of control; under setting [12], 89 % of control.

For `NC(CSC(c1ccccc1)(c1ccccc1)c1ccc(F)cc1)C(=O)O` (stereo not drawn), the T/C reads like this: (dose: 5.5 mg/kg/injection, schedule: Q01DX009 (ip), vehicle: saline) 117 % of control; (dose: 8.2 mg/kg/injection, schedule: Q01DX009 (ip), vehicle: saline) 117 % of control; (dose: 50.0 mg/kg/injection, schedule: Q01DX009 (ip), vehicle: saline) 161 % of control; (dose: 100.0 mg/kg/injection, schedule: Q01DX009 (ip), vehicle: other) 100 % of control.

With `CCOC(=O)C1=NN(c2ccccc2)C(=O)C1N=Nc1ccc(S(N)(=O)=O)cc1` (stereo not drawn), the T/C by setting is: under setting [13], 95 % of control; under setting [14], 93 % of control; under setting [15], 93 % of control.

Consider `Cn1c2ccc(Cl)cc2c2nnc(NCCCO)nc21`, for which the T/C is 97 % of control under setting [5]; 89 % of control under setting [6]; 93 % of control (dose: 400.0 mg/kg/injection, schedule: Q04DX002 (ip), vehicle: saline).

On to `C(C[P+](c1ccccc1)(c1ccccc1)c1ccccc1)=C(c1ccccc1)c1ccccc1`, for which the T/C under setting [16] was 103 % of control and the T/C (dose: 40.0 mg/kg/injection, schedule: Q01DX001 (ip), vehicle: saline) was 95 % of control.

In the case of `N#CC(O)C(Br)(Br)Br` (stereo not drawn), the T/C was 97 % of control (dose: 5.0 mg/kg/injection, schedule: Q01DX001 (ip), vehicle: saline); 92 % of control under setting [16]; 101 % of control (dose: 20.0 mg/kg/injection, schedule: Q01DX001 (ip), vehicle: saline).

Regarding `CCC1CN1C(=O)c1ccc(OP(=O)(N2CC2CC)N2CC2CC)cc1` (stereo not drawn), the T/C under setting [17] is 102 % of control, the T/C under setting [13] was 102 % of control, the T/C under setting [14] is 105 % of control and the T/C under setting [15] is 102 % of control.

For `CS(=O)(=O)NC1=NCCN1[N+](=O)[O-]`, the T/C (dose: 10.0 mg/kg/injection, schedule: Q01DX009 (ip), vehicle: Klucel (hydroxypropylcellulose) (HPC)) was 88 % of control; the T/C under setting [7] was 91 % of control; the T/C (dose: 20.0 mg/kg/injection, schedule: Q04DX003 (ip), vehicle: Klucel (hydroxypropylcellulose) (HPC)) is 98 % of control; the T/C under setting [8] was 98 % of control; the T/C (dose: 40.0 mg/kg/injection, schedule: Q04DX003 (ip), vehicle: Klucel (hydroxypropylcellulose) (HPC)) is 101 % of control.

For `COc1ccc(Cc2ccc(OC)cc2)cc1`, the T/C is, setting by setting: under setting [17], 96 % of control; under setting [13], 96 % of control; under setting [14], 96 % of control; under setting [15], 90 % of control.

For `CCCCCCCCCCCCCCCC(=O)Nc1cccc2c[n+](CC(=O)c3ccc(NC(=O)CCC(=O)OC)cc3)ccc12`, the T/C by setting is: (dose: 100.0 mg/kg/injection, schedule: Q01DX009 (ip), vehicle: saline with Tween-80) 87 % of control; (dose: 400.0 mg/kg/injection, schedule: Q01DX009 (ip), vehicle: saline with Tween-80) 91 % of control; under setting [12], 94 % of control.

For `CNc1nc(N)nc(Nc2ccc(I)cc2)c1N=O`, the T/C (dose: 100.0 mg/kg/injection, schedule: Q01DX001 (ip), vehicle: carboxymethylcellulose (CMC)) was 105 % of control; the T/C (dose: 100.0 mg/kg/injection, schedule: Q01DX009 (ip), vehicle: acetone) was 107 % of control; the T/C (dose: 100.0 mg/kg/injection, schedule: Q04DX003 (ip), vehicle: acetone) is 115 % of control; the T/C (dose: 200.0 mg/kg/injection, schedule: Q01DX001 (ip), vehicle: carboxymethylcellulose (CMC)) was 110 % of control; the T/C (dose: 200.0 mg/kg/injection, schedule: Q01DX009 (ip), vehicle: acetone) was 107 % of control; the T/C (dose: 200.0 mg/kg/injection, schedule: Q04DX003 (ip), vehicle: acetone) was 105 % of control. Also, the T/C was 100 % of control (dose: 400.0 mg/kg/injection, schedule: Q01DX001 (ip), vehicle: carboxymethylcellulose (CMC)); 98 % of control (dose: 400.0 mg/kg/injection, schedule: Q01DX009 (ip), vehicle: acetone); 98 % of control (dose: 400.0 mg/kg/injection, schedule: Q04DX003 (ip), vehicle: acetone).

As for `CCOP(=O)(CCN(C(C)C)C(C)C)OCC`, the T/C is, setting by setting: (dose: 50.0 mg/kg/injection, schedule: Q01DX009 (ip), vehicle: Klucel (hydroxypropylcellulose) (HPC)) 100 % of control; under setting [1], 100 % of control; under setting [2], 88 % of control; under setting [3], 93 % of control.

For the molecule `COC1OC(COC(C)=O)C(N(C)C(C)=O)C1OC(C)=O` (stereo not drawn), the T/C reads like this: under setting [13], 96 % of control; under setting [14], 90 % of control; under setting [15], 94 % of control.

As to `CCNC(=O)NCCN1CCOCC1`, the T/C is 95 % of control (dose: 100.0 mg/kg/injection, schedule: Q01DX009 (ip), vehicle: saline); 98 % of control (dose: 200.0 mg/kg/injection, schedule: Q01DX009 (ip), vehicle: saline); 104 % of control (dose: 400.0 mg/kg/injection, schedule: Q01DX009 (ip), vehicle: saline).

As to `Cc1ccc(NC(=O)C2C3C=CC(C3)C2C(=O)Nc2ccc(C)cc2)cc1` (stereo not drawn), the T/C under setting [10] was 96 % of control, the T/C under setting [11] was 96 % of control and the T/C under setting [12] is 91 % of control.
